The molecules below were run against hTS (recombinant human TS, thymidylate synthase) (Homo sapiens, UniProt P04818) (assay: UV absorbance at […] nm, TS activity).
Format: biochemical

Sequence of hTS (recombinant human TS, thymidylate synthase) (P04818 2-313): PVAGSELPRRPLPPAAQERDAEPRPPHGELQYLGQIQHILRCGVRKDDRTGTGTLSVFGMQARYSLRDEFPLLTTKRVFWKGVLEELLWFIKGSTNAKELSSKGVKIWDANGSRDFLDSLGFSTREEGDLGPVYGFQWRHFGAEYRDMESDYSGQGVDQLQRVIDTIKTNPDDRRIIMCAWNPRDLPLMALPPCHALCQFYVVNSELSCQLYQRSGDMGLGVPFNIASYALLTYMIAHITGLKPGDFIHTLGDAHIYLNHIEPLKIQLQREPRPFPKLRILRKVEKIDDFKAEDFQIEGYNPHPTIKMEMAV

SMILES	IC50
O=c1[nH]cc(S(=O)(=O)Nc2cccc(-c3nnc(-c4ccccc4)o3)c2)c(=O)[nH]1 [7a, N-(3-(5-phenyl-1,3,4-oxadiazol-2-yl)phenyl)-2,4-dihydroxypyrimidine-5-sulfuramide]	3.15 ± 0.61 µM
Cc1ccccc1-c1nnc(-c2cccc(NS(=O)(=O)c3c[nH]c(=O)[nH]c3=O)c2)o1 [7b, N-(3-(5-(o-tolyl)-1,3,4-oxadiazol-2-yl)phenyl)-2,4-dihydroxypyrimidine −5-sulfonamide]	2.75 ± 0.29 µM
Cc1cccc(-c2nnc(-c3cccc(NS(=O)(=O)c4c[nH]c(=O)[nH]c4=O)c3)o2)c1 [7c, N-(3-(5-(m-tolyl)-1,3,4-oxadiazol-2-yl)phenyl)-2,4-dihydroxypyrimidine-5-sulfonamide]	1.46 ± 0.37 µM
Cc1ccc(-c2nnc(-c3cccc(NS(=O)(=O)c4c[nH]c(=O)[nH]c4=O)c3)o2)cc1 [7d, N-(3-(5-(p-tolyl)-1,3,4-oxadiazol-2-yl)phenyl)-2,4-dihydroxypyrimidine-5-sulfonamide]	1.79 ± 0.12 µM
O=c1[nH]cc(S(=O)(=O)Nc2cccc(-c3nnc(-c4ccccc4Cl)o3)c2)c(=O)[nH]1 [7e, N-(3-(5-(2-chlorophenyl)-1,3,4-oxadiazol-2-yl)phenyl)-2,4-dihydroxypyrimidine-5-sulfonamide]	0.65 ± 0.43 µM
O=c1[nH]cc(S(=O)(=O)Nc2cccc(-c3nnc(-c4cccc(Cl)c4)o3)c2)c(=O)[nH]1 [7f, N-(3-(5-(3-chlorophenyl)-1,3,4-oxadiazol-2-yl)phenyl)-2,4-dihydroxypyrimidine-5-sulfonamide]	0.11 ± 0.03 µM
O=c1[nH]cc(S(=O)(=O)Nc2cccc(-c3nnc(-c4ccc(Cl)cc4)o3)c2)c(=O)[nH]1 [7g, N-(3-(5-(4-chlorophenyl)-1,3,4-oxadiazol-2-yl)phenyl)-2,4-dihydroxypyrimidine-5-sulfonamide]	0.44 ± 0.1 µM

More lines, now with the values ahead:

IC50	SMILES
5.18 ± 0.73 µM	O=c1[nH]cc(S(=O)(=O)Nc2cccc(-c3nnc(-c4ccccc4F)o3)c2)c(=O)[nH]1 [7h, N-(3-(5-(2-fluorophenyl)-1,3,4-oxadiazol-2-yl)phenyl)-2,4-dihydroxypyrimidine-5-sulfonamide]
4.61 ± 1.1 µM	O=c1[nH]cc(S(=O)(=O)Nc2cccc(-c3nnc(-c4cccc(F)c4)o3)c2)c(=O)[nH]1 [7i, N-(3-(5-(3-fluorophenyl)-1,3,4-oxadiazol-2-yl)phenyl)-2,4-dihydroxypyrimidine-5-sulfonamide]
1.16 ± 0.37 µM	O=c1[nH]cc(S(=O)(=O)Nc2cccc(-c3nnc(-c4ccccc4Br)o3)c2)c(=O)[nH]1 [7k, N-(3-(5-(2-bromophenyl)-1,3,4-oxadiazol-2-yl)phenyl)-2,4-dihydroxypyrimidine-5-sulfonamide]
0.93 ± 0.28 µM	O=c1[nH]cc(S(=O)(=O)Nc2cccc(-c3nnc(-c4cccc(Br)c4)o3)c2)c(=O)[nH]1 [7l, N-(3-(5-(3-bromophenyl)-1,3,4-oxadiazol-2-yl)phenyl)-2,4-dihydroxypyrimidine-5-sulfonamide]
1.29 ± 0.12 µM	O=c1[nH]cc(S(=O)(=O)Nc2cccc(-c3nnc(-c4ccc(Br)cc4)o3)c2)c(=O)[nH]1 [7m, N-(3-(5-(4-bromophenyl)-1,3,4-oxadiazol-2-yl)phenyl)-2,4-dihydroxypyrimidine-5-sulfonamide]
2.44 ± 0.88 µM	Nc1nc2[nH]cc(CCc3ccc(C(=O)N[C@@H](CCC(=O)O)C(=O)O)cc3)c2c(=O)[nH]1 [PTX]
